Laboratory results reported in the supplement of paper PMC10307832.

Experiments:
Experiment in all cases: relative viability (nuclei count vs DMSO), 5 days (fraction); higher = more cells survive
Bosutinib + Decitabine = compound: COc1cc(Nc2c(C#N)cnc3cc(OCCCN4CCN(C)CC4)c(OC)cc23)c(Cl)cc1Cl [Bosutinib] + Nc1ncn([C@H]2C[C@H](O)[C@@H](CO)O2)c(=O)n1 [Decitabine] (partner 2 µM)
Outline: (§1)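 Five library-drug doses in √10 steps were combined with a fixed anchor-drug dose, or a single drug was given alone, by pin tool to lung cancer cell lines in 1536-well plates the day after seeding. Nuclei were stained and counted after 5 days. Relative viability is the nuclei count in treated wells over that in vehicle wells, taken as the median of duplicate plates.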

Bosutinib + Foretinib = compound: COc1cc(Nc2c(C#N)cnc3cc(OCCCN4CCN(C)CC4)c(OC)cc23)c(Cl)cc1Cl [Bosutinib] + COc1cc2c(Oc3ccc(NC(=O)C4(C(=O)Nc5ccc(F)cc5)CC4)cc3F)ccnc2cc1OCCCN1CCOCC1 [Foretinib] (partner 0.25 µM)
Outline: as §1

Bosutinib + OSI-027 = compound: COc1cc(Nc2c(C#N)cnc3cc(OCCCN4CCN(C)CC4)c(OC)cc23)c(Cl)cc1Cl [Bosutinib] + COc1cccc2cc(-c3nc([C@H]4CC[C@H](C(=O)O)CC4)n4ncnc(N)c34)[nH]c12 [OSI-027] (partner 0.5 µM)
Outline: as §1

Bosutinib + Alpelisib = compound: COc1cc(Nc2c(C#N)cnc3cc(OCCCN4CCN(C)CC4)c(OC)cc23)c(Cl)cc1Cl [Bosutinib] + Cc1nc(NC(=O)N2CCC[C@H]2C(N)=O)sc1-c1ccnc(C(C)(C)C(F)(F)F)c1 [Alpelisib] (partner 2 µM)
Outline: as §1

Bosutinib + Luminespib = compound: COc1cc(Nc2c(C#N)cnc3cc(OCCCN4CCN(C)CC4)c(OC)cc23)c(Cl)cc1Cl [Bosutinib] + CCNC(=O)c1noc(-c2cc(C(C)C)c(O)cc2O)c1-c1ccc(CN2CCOCC2)cc1 [Luminespib] (partner 0.01 µM)
Outline: as §1

Cell Line	relative viability (Bosutinib + Decitabine; first compound 0.01 µM)	relative viability (Bosutinib + Decitabine; first compound 0.03162 µM)	relative viability (Bosutinib + Decitabine; first compound 0.1 µM)	relative viability (Bosutinib + Decitabine; first compound 1 µM)	relative viability (Bosutinib + Foretinib; first compound 0.01 µM)	relative viability (Bosutinib + Foretinib; first compound 0.03162 µM)	relative viability (Bosutinib + Foretinib; first compound 0.1 µM)	relative viability (Bosutinib + Foretinib; first compound 1 µM)	relative viability (Bosutinib + OSI-027; first compound 0.01 µM)	relative viability (Bosutinib + OSI-027; first compound 0.03162 µM)	relative viability (Bosutinib + OSI-027; first compound 0.1 µM)	relative viability (Bosutinib + OSI-027; first compound 1 µM)	relative viability (Bosutinib + Alpelisib; first compound 0.01 µM)	relative viability (Bosutinib + Alpelisib; first compound 0.03162 µM)	relative viability (Bosutinib + Alpelisib; first compound 0.1 µM)	relative viability (Bosutinib + Alpelisib; first compound 1 µM)	relative viability (Bosutinib + Luminespib; first compound 0.01 µM)	relative viability (Bosutinib + Luminespib; first compound 0.03162 µM)	relative viability (Bosutinib + Luminespib; first compound 0.1 µM)	relative viability (Bosutinib + Luminespib; first compound 1 µM)
EMC-BAC-2	0.963	0.967	0.992	0.988	1.02	0.981	1.06	0.768	0.388	0.383	0.385	0.37	0.757	0.731	0.723	0.657	1.22	1.07	1.17	1.04
NCI-H661	0.57	0.537	0.521	0.426	1.07	0.995	0.968	0.596	0.682	0.804	0.744	0.56	0.407	0.881	0.88	0.477	0.947	0.964	0.963	0.758
LU99A	0.871	0.945	0.961	0.861	0.853	1.04	0.967	1.07	0.313	0.332	0.32	0.343	0.53	0.545	0.568	0.674	0.231	0.258	0.242	0.242
LK-2	0.278	0.363	0.313	0.359	1.1	1.49	1.19	0.914	0.256	0.253	0.192	0.185	1.11	1.08	1.05	0.761	0.199	0.171	0.19	0.209
NCI-H3122	0.43	0.462	0.388	0.538	1.04	0.979	0.926	0.993	1.05	1.04	1.03	1.17	0.769	0.797	0.821	0.993	0.0649	0.0933	0.104	0.104
NCI-H2347	0.631	0.623	0.64	0.529	0.929	0.878	0.988	0.885	0.347	0.436	0.436	0.385	1	1.07	1.06	1.12	0.39	0.507	0.472	0.266
NCI-H1563	–	–	–	–	0.917	0.953	0.846	0.676	0.794	0.831	0.761	0.717	0.905	0.904	0.859	0.63	0.516	0.535	0.54	0.521
HCC-827	0.306	0.37	0.404	0.186	0.965	1.04	1.02	0.203	0.784	0.828	0.872	0.574	0.972	0.971	1.03	0.576	0.709	0.589	0.525	0.174
NCI-H1666	0.63	0.868	0.72	0.802	1.04	0.936	0.976	0.921	0.773	0.811	0.821	1.03	0.982	0.947	1.07	0.865	1.02	1.01	0.995	1.1
NCI-H358	0.211	0.213	0.209	0.218	0.896	0.705	0.648	0.494	0.786	0.742	0.787	0.545	0.862	0.817	0.771	0.585	0.28	0.331	0.372	0.439
201T	0.892	0.874	0.848	0.821	1.08	1.06	0.991	0.548	0.874	0.712	0.725	0.633	1	1.02	1.01	0.909	1.01	1.06	1.02	0.848
PC-3 [JPC-3]	0.883	0.798	0.826	0.596	1	0.993	1.05	0.759	0.812	0.685	0.745	0.54	0.962	1.03	1.02	0.937	0.679	0.835	0.685	0.569
NCI-H2405	0.749	0.775	0.757	0.57	1.03	1.07	1.09	0.832	0.634	0.619	0.615	0.629	0.886	0.759	0.837	0.365	0.661	0.645	0.696	0.439
LXF-289	0.338	0.368	0.427	0.449	0.926	1	0.979	0.913	0.765	0.849	0.823	0.898	1.03	0.986	1.01	1.06	0.718	0.674	0.702	0.689
EKVX	0.382	0.38	0.311	0.336	0.723	0.82	0.693	0.469	0.79	0.764	0.654	0.55	0.894	0.89	0.847	0.476	0.799	0.914	0.834	0.633
A-427	0.596	0.56	0.617	0.612	1.02	1	1.14	0.972	0.489	0.498	0.553	0.48	1.03	1.11	1.03	0.978	0.959	0.953	0.936	0.745
IA-LM	–	–	–	–	1.1	1.18	1.14	0.982	–	–	–	–	0.832	0.733	0.931	0.674	–	–	–	–
ChaGo-K-1	0.496	0.536	0.511	0.518	1	0.866	0.981	0.931	0.568	0.501	0.576	0.647	–	–	–	–	0.622	0.555	0.47	0.585

Cell Line	relative viability (Bosutinib + Decitabine; first compound 0.01 µM)	relative viability (Bosutinib + Decitabine; first compound 0.03162 µM)	relative viability (Bosutinib + Decitabine; first compound 0.1 µM)	relative viability (Bosutinib + Decitabine; first compound 1 µM)	relative viability (Bosutinib + Foretinib; first compound 0.01 µM)	relative viability (Bosutinib + Foretinib; first compound 0.03162 µM)	relative viability (Bosutinib + Foretinib; first compound 0.1 µM)	relative viability (Bosutinib + Foretinib; first compound 1 µM)	relative viability (Bosutinib + OSI-027; first compound 0.01 µM)	relative viability (Bosutinib + OSI-027; first compound 0.03162 µM)	relative viability (Bosutinib + OSI-027; first compound 0.1 µM)	relative viability (Bosutinib + OSI-027; first compound 1 µM)	relative viability (Bosutinib + Alpelisib; first compound 0.01 µM)	relative viability (Bosutinib + Alpelisib; first compound 0.03162 µM)	relative viability (Bosutinib + Alpelisib; first compound 0.1 µM)	relative viability (Bosutinib + Alpelisib; first compound 1 µM)	relative viability (Bosutinib + Luminespib; first compound 0.01 µM)	relative viability (Bosutinib + Luminespib; first compound 0.03162 µM)	relative viability (Bosutinib + Luminespib; first compound 0.1 µM)	relative viability (Bosutinib + Luminespib; first compound 1 µM)
NCI-H2342	0.691	0.744	0.726	0.855	0.903	0.994	0.999	1.05	0.634	0.669	0.702	0.718	–	–	–	–	0.587	0.714	0.694	0.666
SK-MES-1	0.412	0.482	0.428	0.314	0.966	0.955	0.97	0.747	0.64	0.681	0.671	0.38	0.876	0.971	0.999	1.06	0.812	0.839	0.765	0.284
LCLC-97TM1	0.249	0.262	0.215	0.271	0.902	0.902	0.904	0.894	0.545	0.609	0.548	0.56	0.232	0.244	0.371	0.344	0.871	0.744	0.74	0.746
NCI-H2170	0.429	0.465	0.463	0.457	0.959	1	1.01	0.962	0.7	0.684	0.732	0.654	0.821	0.866	0.797	0.711	0.515	0.665	0.702	0.44
NCI-H1993	0.599	0.655	0.655	0.568	0.819	0.672	0.778	0.564	0.54	0.541	0.539	0.469	0.635	0.69	0.641	0.669	0.688	0.817	0.875	0.887
NCI-H460	0.5	0.475	0.539	0.419	1.01	1.03	1	0.855	0.803	0.631	0.7	0.603	0.5	0.533	0.428	0.201	0.0343	0.0293	0.0274	0.0252
NCI-H1975	0.45	0.369	0.398	0.371	0.981	0.975	0.977	0.841	0.735	0.761	0.697	0.534	0.615	0.688	0.67	0.433	0.244	0.252	0.21	0.141
CAL-12T	–	–	–	–	1.11	1.09	1.11	0.834	0.735	0.637	0.803	0.565	1.09	1.09	1.2	0.787	0.516	0.587	0.335	0.204
NCI-H1792	0.611	0.561	0.623	0.417	–	–	–	–	0.692	0.706	0.751	0.688	0.774	0.677	0.757	0.505	0.528	0.35	0.411	0.367
HCC-366	0.348	0.365	0.312	0.265	0.884	0.97	0.971	0.879	0.981	0.898	0.821	0.405	0.532	0.416	0.305	0.111	–	–	–	–
HCC-44	0.97	0.995	0.971	0.987	–	–	–	–	0.525	0.673	0.594	0.571	0.749	0.877	0.761	0.772	1.18	1.07	1.08	0.627
NCI-H1703	–	–	–	–	0.371	0.345	0.334	0.246	–	–	–	–	0.351	0.378	0.294	0.261	–	–	–	–
NCI-H1650	0.457	0.378	0.378	0.511	0.917	1.09	0.862	0.599	0.734	0.6	0.444	0.41	–	–	–	–	0.193	0.209	0.174	0.154
HCC-78	0.768	0.698	0.761	0.676	0.553	0.506	0.571	0.52	0.361	0.362	0.353	0.358	0.349	0.31	0.393	0.32	–	–	–	–
NCI-H522	0.572	0.671	0.698	0.658	–	–	–	–	0.734	0.641	0.682	0.69	–	–	–	–	1.15	1.16	1.26	1.01
SW 900	0.408	0.438	0.427	0.424	0.806	–	1.04	0.721	0.51	–	0.591	0.455	–	–	–	–	0.154	–	0.183	0.15
NCI-H2228	–	–	–	–	0.762	0.931	0.887	0.744	0.489	0.533	0.577	0.609	0.772	–	0.75	0.587	0.104	0.185	0.167	0.109
